Measurements as given in the supplement of paper PMC11061612.

Key:
[1] = test system: CA46 (Burkitt's Lymphoma); assay: Bliss excess, mean over the matrix (fraction); higher = more synergy
Procedure, shortened: (§1)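 Bliss excess equals the observed combination effect minus the expected value EA + EB − EA·EB, where EA and EB are the effects of each agent alone. Combination Emax is the second-highest inhibition within the matrix. Inhibition was scaled from CellTiter-Glo 2.0 luminescence, with 0 set by vehicle wells and 1 by blank wells, after 72 hours of two-drug dosing of cells plated in 1536-well plates.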

[2] = test system: CAL-27 (Oral Cavity Carcinoma); assay: as above
Procedure, shortened: as §1

[3] = test system: DU-4475 (Breast Carcinoma); assay: as above
Procedure, shortened: as §1

EB2 (Burkitt's Lymphoma) = assay: as above
Procedure, shortened: as §1

[4] = test system: G-402 (Other Solid Carcinomas); assay: as above
Procedure, shortened: as §1

[5] = test system: HCC1395 (Breast Carcinoma); assay: as above
Procedure, shortened: as §1

[6] = test system: HCC1428 (Breast Carcinoma); assay: as above
Procedure, shortened: as §1

[7] = test system: KYSE-220 (Esophageal Squamous Cell Carcinoma); assay: as above
Procedure, shortened: as §1

[8] = test system: MHH-ES-1 (Ewing's Sarcoma); assay: as above
Procedure, shortened: as §1

[9] = test system: TE-10 (Esophageal Squamous Cell Carcinoma); assay: as above
Procedure, shortened: as §1

WM1552C (Melanoma) = assay: as above
Procedure, shortened: as §1

[10] = test system: TE-10 (Esophageal Squamous Cell Carcinoma); assay: combination Emax (second highest fraction inhibited in the dose matrix, 72 h); higher = more inhibition; extreme values may be limits of the assay
Procedure, shortened: as §1

SMILES | Bliss excess [1] | Bliss excess [2] | Bliss excess [3] | Bliss excess (EB2 (Burkitt's Lymphoma)) | Bliss excess [4] | Bliss excess [5] | Bliss excess [6] | Bliss excess [7] | Bliss excess [8] | Bliss excess [9] | Bliss excess (WM1552C (Melanoma)) | combination Emax [10]
CC1(C)CCC(CN2CCN(c3ccc(C(=O)NS(=O)(=O)c4ccc(NCC5CCOCC5)c([N+](=O)[O-])c4)c(Oc4cnc5[nH]ccc5c4)c3)CC2)=C(c2ccc(Cl)cc2)C1 [Venetoclax] + C[C@@H]1COCCN1C2=NC(=NC(=C2)C3(CC3)[S@](=N)(=O)C)C4=C5C=CNC5=NC=C4 [AZD6738] (first compound max 1 µM, 7x7, partner max 10 µM) | 0.0093 | -0.0559 | 0.0062 | -0.035 | -0.0004 | -0.0671 | -0.0137 | -0.0398 | 0.0077 | -0.0361 | -0.0603 | 0.827
COc1cccc(OCCCN)c1-c1cc(Nc2cnc(C#N)cn2)n[nH]1 [Prexasertib] + C=CCn1c(=O)c2cnc(Nc3ccc(N4CCN(C)CC4)cc3)nc2n1-c1cccc(C(C)(C)O)n1 [AZD1775] (first compound max 1 µM, partner max 1 µM) | 0.0924 | 0.0945 | 0.114 | 0.0249 | 0.0504 | 0.0111 | 0.138 | 0.0333 | 0.0402 | 0.0262 | 0.0412 | 0.976
CN(C)CCCOc1ccc(-c2ccc3ncc4c(c3c2)n(C2CCOCC2)c(=O)n4C)cn1 [AZD0156] + CCN(CCO)CCCOc1ccc2c(Nc3cc(CC(=O)Nc4cccc(F)c4)[nH]n3)ncnc2c1 [AZD2811] (first compound max 1 µM, 7x7, partner max 1 µM) | 0.0059 | -0.0054 | -0.0135 | -0.0245 | -0.0111 | -0.0936 | -0.06 | -0.0095 | 0.0376 | 0.0126 | -0.0135 | 0.332
C=CCn1c(=O)c2cnc(Nc3ccc(N4CCN(C)CC4)cc3)nc2n1-c1cccc(C(C)(C)O)n1 [AZD1775] + C[C@@H]1COCCN1C2=NC(=NC(=C2)C3(CC3)[S@](=N)(=O)C)C4=C5C=CNC5=NC=C4 [AZD6738] (first compound max 1 µM, partner max 10 µM) | 0.0061 | 0.0428 | 0.0549 | 0.0589 | -0.0458 | 0.0091 | 0.0035 | 0.0242 | -0.0135 | -0.0029 | 0.0011 | 0.901
CC1(C)CCC(CN2CCN(c3ccc(C(=O)NS(=O)(=O)c4ccc(NCC5CCOCC5)c([N+](=O)[O-])c4)c(Oc4cnc5[nH]ccc5c4)c3)CC2)=C(c2ccc(Cl)cc2)C1 [Venetoclax] + Cc1cc2ncnn2cc1Nc1ncc2c(n1)n(C1CCOCC1)c(=O)n2C [AZD7648] (first compound max 1 µM, 7x7, partner max 10 µM) | -0.0454 | 0.0079 | 0.0152 | -0.0338 | -0.0359 | -0.0491 | -0.006 | -0.0371 | -0.0189 | -0.0068 | -0.0571 | 0.477
COc1cccc(OCCCN)c1-c1cc(Nc2cnc(C#N)cn2)n[nH]1 [Prexasertib] + Cc1cc2ncnn2cc1Nc1ncc2c(n1)n(C1CCOCC1)c(=O)n2C [AZD7648] (first compound max 1 µM, 7x7, partner max 10 µM) | -0.0182 | 0.0291 | 0.0256 | -0.0306 | -0.0602 | -0.0527 | -0.0714 | -0.0308 | -0.004 | -0.0604 | -0.0385 | 0.938
CCN(CCO)CCCOc1ccc2c(Nc3cc(CC(=O)Nc4cccc(F)c4)[nH]n3)ncnc2c1 [AZD2811] + O=C(c1cc(Cc2n[nH]c(=O)c3ccccc23)ccc1F)N1CCN(C(=O)C2CC2)CC1 [Olaparib] (first compound max 1 µM, 7x7, partner max 10 µM) | 0.02 | 0.0484 | 0.0213 | 0.0141 | -0.0281 | -0.0546 | -0.0081 | 0.01 | -0.0214 | 0.0515 | -0.027 | 0.4
Cc1c2c(nn1C)CSCc1cc(n(C)n1)CSc1cc(c3ccccc3c1)OCCCc1c(C(=O)O)n(C)c3c-2c(Cl)ccc13 [AZD5991] + CC1(C)CCC(CN2CCN(c3ccc(C(=O)NS(=O)(=O)c4ccc(NCC5CCOCC5)c([N+](=O)[O-])c4)c(Oc4cnc5[nH]ccc5c4)c3)CC2)=C(c2ccc(Cl)cc2)C1 [Venetoclax] (first compound max 1 µM, 7x7, partner max 1 µM) | -0.02 | -0.0081 | 0.0375 | 0.0144 | -0.0461 | -0.019 | 0.0221 | 0.0093 | 0.0733 | 0.0262 | -0.115 | 0.886
